Experimental data reported in PubChem BioAssay AID248 (DTP/NCI, 2004).
Toxic doses and inconclusive results are not listed.

Test system: L1210 leukemia ip in BDF1 mice, survival T/C
Test: NCI In Vivo Anticancer Drug Screen. Data for tumor model L1210 Leukemia (intraperitoneal) in B6D2F1 (BDF1) mice
Conditions: endpoint: mean survival time, higher = longer survival
Outline: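 Read-out is survival time, reported as the treated-group measurement over the vehicle-control measurement.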

[1] = dose: 100.0 mg/kg/injection, schedule: Q01DX001 (ip), vehicle: carboxymethylcellulose (CMC)
[2] = dose: 200.0 mg/kg/injection, schedule: Q01DX001 (ip), vehicle: carboxymethylcellulose (CMC)
[3] = dose: 100.0 mg/kg/injection, schedule: Q04DX003 (ip), vehicle: saline with Tween-80
[4] = dose: 200.0 mg/kg/injection, schedule: Q04DX003 (ip), vehicle: saline with Tween-80
[5] = dose: 50.0 mg/kg/injection, schedule: Q04DX003 (ip), vehicle: Klucel (hydroxypropylcellulose) (HPC)
[6] = dose: 100.0 mg/kg/injection, schedule: Q04DX003 (ip), vehicle: Klucel (hydroxypropylcellulose) (HPC)
[7] = dose: 200.0 mg/kg/injection, schedule: Q04DX003 (ip), vehicle: Klucel (hydroxypropylcellulose) (HPC)

Cc1ccc(S(=O)(=O)NCc2cccc([N+](=O)[O-])c2)cc1
T/C (dose: 100.0 mg/kg/injection, schedule: Q01DX001 (ip), vehicle: Klucel (hydroxypropylcellulose) (HPC)): 102 % of control | T/C (dose: 200.0 mg/kg/injection, schedule: Q01DX001 (ip), vehicle: Klucel (hydroxypropylcellulose) (HPC)): 96 % of control | T/C (dose: 400.0 mg/kg/injection, schedule: Q01DX001 (ip), vehicle: Klucel (hydroxypropylcellulose) (HPC)): 96 % of control

CS(=O)(=O)O/C=C(\C#N)C(=O)O
T/C [1]: 103 % of control | T/C [2]: 106 % of control

O=C1CCC(CC2CCCCC2)CC1
T/C [3]: 100 % of control | T/C [4]: 95 % of control

c1ccc(-c2nn3c(-c4ccccc4)nnc3o2)cc1
T/C (dose: 66.0 mg/kg/injection, schedule: Q01DX009 (ip), vehicle: saline with Tween-80): 90 % of control | T/C [3]: 92 % of control | T/C (dose: 150.0 mg/kg/injection, schedule: Q01DX009 (ip), vehicle: saline with Tween-80): 95 % of control | T/C (dose: 200.0 mg/kg/injection, schedule: Q01DX009 (ip), vehicle: saline with Tween-80): 90 % of control | T/C [4]: 93 % of control | T/C (dose: 400.0 mg/kg/injection, schedule: Q01DX009 (ip), vehicle: saline with Tween-80): 164 % of control | T/C (dose: 400.0 mg/kg/injection, schedule: Q04DX003 (ip), vehicle: saline with Tween-80): 92 % of control

COC(=O)c1cc(C)c(C(=O)OC)cc1C
T/C (dose: 100.0 mg/kg/injection, schedule: Q01DX009 (ip), vehicle: saline sonified): 97 % of control | T/C (dose: 200.0 mg/kg/injection, schedule: Q01DX009 (ip), vehicle: saline sonified): 91 % of control | T/C (dose: 400.0 mg/kg/injection, schedule: Q01DX009 (ip), vehicle: saline sonified): 88 % of control

Cc1ccc(C(=O)OCC2OC3OC(C)(C)OC3C2OC(=O)c2ccc(C)cc2)cc1 (centres undefined)
T/C [1]: 90 % of control | T/C [2]: 104 % of control | T/C (dose: 400.0 mg/kg/injection, schedule: Q01DX001 (ip), vehicle: carboxymethylcellulose (CMC)): 101 % of control

CCC(=O)OC1(c2ccccc2)CCN(CCC(O)c2ccco2)CC1 (centres undefined)
T/C (dose: 40.0 mg/kg/injection, schedule: Q01DX009 (ip), vehicle: Klucel (hydroxypropylcellulose) (HPC)): 97 % of control | T/C (dose: 80.0 mg/kg/injection, schedule: Q01DX009 (ip), vehicle: Klucel (hydroxypropylcellulose) (HPC)): 98 % of control | T/C (dose: 160.0 mg/kg/injection, schedule: Q01DX009 (ip), vehicle: Klucel (hydroxypropylcellulose) (HPC)): 98 % of control

Oc1ccccc1OCc1ccccc1
T/C [5]: 92 % of control | T/C (dose: 100.0 mg/kg/injection, schedule: Q01DX009 (ip), vehicle: Klucel (hydroxypropylcellulose) (HPC)): 101 % of control | T/C [6]: 94 % of control | T/C (dose: 200.0 mg/kg/injection, schedule: Q01DX009 (ip), vehicle: Klucel (hydroxypropylcellulose) (HPC)): 97 % of control | T/C [7]: 92 % of control | T/C (dose: 400.0 mg/kg/injection, schedule: Q01DX009 (ip), vehicle: Klucel (hydroxypropylcellulose) (HPC)): 102 % of control | T/C (dose: 400.0 mg/kg/injection, schedule: Q04DX003 (ip), vehicle: Klucel (hydroxypropylcellulose) (HPC)): 100 % of control

CC(=O)NC(Cc1ccccc1)C(=O)O (centres undefined)
T/C [5]: 94 % of control | T/C [6]: 103 % of control | T/C [7]: 100 % of control

C1CC2CC3OC3CC12 (centres undefined)
T/C (dose: 100.0 mg/kg/injection, schedule: Q04DX002 (ip), vehicle: Klucel (hydroxypropylcellulose) (HPC)): 95 % of control | T/C (dose: 200.0 mg/kg/injection, schedule: Q04DX002 (ip), vehicle: Klucel (hydroxypropylcellulose) (HPC)): 92 % of control | T/C (dose: 400.0 mg/kg/injection, schedule: Q04DX002 (ip), vehicle: Klucel (hydroxypropylcellulose) (HPC)): 92 % of control

O=S1(=O)CC2(N3CCCC3)CCCCC21 (centres undefined)
T/C (dose: 75.0 mg/kg/injection, schedule: Q01DX001 (ip), vehicle: saline): 98 % of control | T/C (dose: 150.0 mg/kg/injection, schedule: Q01DX001 (ip), vehicle: saline): 100 % of control | T/C (dose: 300.0 mg/kg/injection, schedule: Q01DX001 (ip), vehicle: saline): 100 % of control
